# Test results from patent publication US20240148819A1, “COMPOUNDS FOR USE IN THE TREATMENT OF SINUSITIS, PNEUMONIA OR OTITIS” (PHARMA HOLDINGS AS, priority 2021, published 2024).
# Where “and” joins values, the source holds several entries; their conditions need not be identical. Equal values may be shown once. Read-outs that look alike come from different tables or passages of the source.
# How the values were obtained:
# [1] = system: Influenza A virus (IAV; A/WSN/33); type: cell-based
# Rhinovirus 60, 2268-CV37 = experiment: TCID50 assay after 1 h incubation of virus with 1% LTX-109 (Example 6); type: cell-based
# Moraxella catarrhalis = system: Moraxella catarrhalis
# Protocol: (§1) Bacterial and fungal isolates used in this study were from various sources worldwide stored at GR Micro Ltd. and maintained, with minimal sub-culture, deep frozen at −70° C. as a dense suspension in a high protein matrix of undiluted horse serum.
# (§2) Minimum inhibitory concentration (MIC) of LTX-109 was determined using the following microbroth dilution methods for antimicrobial susceptibility testing published by the Clinical and Laboratory Standards Institute (CLSI, formerly NCCLS): • M7-A6 Vol. 23 No. 2 Jan. 2003 Methods for Dilution Antimicrobial Susceptibility Tests for Bacteria that Grow Aerobically; Approved Standard-Sixth Edition. National Committee for Clinical Laboratory Standards. • M100-S15 Vol. 25 No 1. January 2005 Performance Standards for Antimicrobial Susceptibility Testing; Fifteenth Informational Supplement. Clinical and Laboratory Standards Institute • M11-A6 Vol. 24 No. 2 Methods for Antimicrobial Susceptibility Testing of Anaerobic Bacteria; Approved Standard-Sixth Edition. National Committee for Clinical Laboratory Standards. • M27-A2 Vol. 22 No. 15 Reference Method for Broth Dilution Antifungal Susceptibility Testing of Yeasts; Approved Standard-Second Edition. National Committee for Clinical Laboratory Standards. • M38-A Vol. 22 No. 16 Reference Method for Broth Dilution Antifungal Susceptibility Testing of Filamentous Fungi; Approved Standard. National Committee for Clinical Laboratory Standards.
# (§3) MIC estimations were performed using wet plates, containing the LTX-109, prepared at GR Micro Ltd.
# (§4) Cation-adjusted Mueller-Hinton broth (Oxoid Ltd., Basingstoke, UK and Trek Diagnostic Systems Ltd., East Grinstead, UK) (supplemented with 5% laked horse blood for Streptococcus spp.) was used for aerobic bacteria, with an initial inoculum of approximately 10^5 colony-forming units (CFU)/mL.
# (§5) Following normal practice all the plates containing Mueller-Hinton broth were prepared in advance, frozen at −70° C. on the day of preparation and defrosted on the day of use. Fungal, Haemophilus and anaerobic MIC determinations were all performed in plates prepared on the same day.
# Streptococcus pneumoniae = system: Streptococcus pneumoniae
# Protocol: as §1, §2, §3, §4, §5
# Streptococcus pyogenes = Streptococcus pyogenes - macrolide (MLS) resistant clinical isolate
# Protocol: as §1, §2, §3, §4, §5
# Pseudomonas aeruginosa = Pseudomonas aeruginosa - ATCC 27853 - antibiotic-susceptible type strain; three replicates (frozen and fresh MHB plates)
# Protocol: as §1
# as §2, with “Standard-Second Edition. […] National Committee” for “Standard-Second Edition. National Committee”, “Laboratory Standards.” for “Laboratory Standards. • M38-A Vol. 22 No. 16 Reference Method for Broth Dilution Antifungal Susceptibility Testing of Filamentous Fungi; Approved Standard. National Committee for Clinical Laboratory Standards.”
# MIC estimations were performed using wet plates, containing the LTX-109, prepared at GR Micro Ltd. […]
# HeLa cells = conditions: 1% LTX-109 (w/v) or 0.25% SDS, after filtration, no virus, dilution showing cytotoxicity
# Protocol: A parallel test where the same procedure was carried out in the absence of virus was included to determine any residual cytotoxic effect of the formulation on the assay cells.
smiles,measurement,setting,value
CC(C)(C)c1cc(C(C)(C)C)c2[nH]c(C(C)(C)C)c(CC(NC(=O)C(N)CCCNC(=N)N)C(=O)NC(CCCNC(=N)N)C(=O)NCCc3ccccc3)c2c1 (centres unmarked) [LTX-109],Log,[1],1.20
same,Percentage,[1],99.9% and 99.969%
same,Log decrease,"Rhinovirus 60, 2268-CV37; Rhinovirus, 1% LTX-109 or 0.25% SDS, 1 hour, compared to PBS control",1.9 log
same,Percentage,"Rhinovirus 60, 2268-CV37; decrease in Rhinovirus infectivity, 1% LTX-109 or 0.25% SDS, 1 hour, compared to PBS control",98.89%
same,Log,"Rhinovirus 60, 2268-CV37; log of Rhinovirus titre after 1 hour with 1% LTX-109 or 0.25% SDS",3.7
same,MIC,Moraxella catarrhalis; Moraxella catarrhalis - reduced fluoroquinolone susceptibility clinical isolate,8 µg/mL
same,MIC,Moraxella catarrhalis; Moraxella catarrhalis - β-lactamase positive clinical isolate,4 µg/mL
same,MIC,Streptococcus pneumoniae; Streptococcus pneumoniae - multi-drug resistant clinical isolate,32 µg/mL
same,MIC,Streptococcus pneumoniae; Streptococcus pneumoniae - penicillin intermediate clinical isolate,32 µg/mL
same,MIC,Streptococcus pneumoniae; Streptococcus pneumoniae - penicillin resistant clinical isolate,16 µg/mL
same,MIC,Streptococcus pneumoniae; Streptococcus pneumoniae - penicillin susceptible clinical isolate,32 µg/mL
same,MIC,Streptococcus pyogenes,16 µg/mL
same,MIC,Pseudomonas aeruginosa,8 µg/mL
same,Cytotoxicity,HeLa cells,Neat
